Structures can show the parent of a compound that is named as a salt.
Tested on: NF-kB activation induced by TNFα
Assay: TNFα Luciferase assay: inhibition of NF-kB activation induced by TNFα in HEK293/NF-kB luciferase cells
Type: cell-based
Details: 25 ng/ml of TNF-α for four hours, quadruplicate, read-out: IC50, concentration at which NF-kB activation was reduced by 50%
Protocol: Determination of Inhibition of NF-kB Activation Induced by TNFα . . . In Vitro Assay
The ability of a compound disclosed herein to inhibit NFkB activation induced by TNFα was determined using the TNFα Luciferase assay. The HEK293/NF-kB luciferase cell line was obtained by cotransfection of pNFkB-luc vector with pHyg (Panomics, CA, USA) followed by hygromycin selection. HEK293/NFkB Luciferase cells were grown in DMEM medium supplemented with 10% fetal bovine serum, 100 U/ml of penicillin, 100 ng/ml of streptomycin/Fungizone, and 100 μg/ml of hygromycin B as the selecting agent. HEK293 NFkB Luciferase cells were grown in T75 flasks (Nunc™ Cell Culture Treated EasYFlasks™) in a cell culture incubator at 37° C. and 5% CO2.
Confluent T75 cell culture flasks (approximately 8-10 million of cells per flask) were washed with 10 ml of sterile PBS (without calcium and magnesium) under a biosafety cabinet. After aspiration of the PBS with a sterile glass pipette, the layer of cells (for each T75 flask) was covered with 1 ml of TrypLE™ Express without phenol red (Gibco) at room temperature. After one minute of incubation, HEK293 were mechanically resuspended in the TrypLE by tapping the side of the flask. The cells were then resuspended with 10 ml of pre-warmed complete culture medium and transferred to a conical tube. Cells were centrifuged for 5 minutes at 4000 rpm (1000 g) at room temperature. The cellular pellet was resuspended with 24 ml of pre-warmed cell culture media and […] of cell suspension (approximately 80,000 cells per well) was plated per well in 96-well cell culture plates (Costar #3599, Corning, N.Y., USA) using a multichannel pipette and reversed pipetting to prevent air bubble formation. After plating, the cells were maintained overnight in the cell culture incubator before being treated. For each 96 well cell culture plate, 8 wells were used as “control wells” (only culture medium added) and to 8 wells only TNFα was added. The NF-kB Luciferase reporter cell line was challenged with 25 ng/ml of TNF-α for four hours in the presence and absence (control conditions) of a dose range of the different compounds to be tested. For each compound, a dose range of concentrations was tested in quadruplicate and used to determine an IC50.
Luciferase activity was monitored using the Luc-Screen® Extended-Glow Luciferase Reporter Gene Assay System by chemoluminescence according to the instruction of the manufacturer (Invitrogen) and a BioTek Synergy HT plate reader (BioTek Instruments, VT, USA).

Compound	IC50 [nM]
mixture of 2-((S)-1-oxo-1-((S)-6-(pyridin-3-yl)-5,6-dihydropyridin-1(2H)-yl)butan-2-yl)isoindoline-1,3-dione and 2-((R)-1-oxo-1-((R)-6-(pyridin-3-yl)-5,6-dihydropyridin-1(2H)-yl)butan-2-yl)isoindoline-1,3-dione [Compound 5]	925000
mixture of 2-((S)-1-oxo-1-((R)-6-(pyridin-3-yl)-5,6-dihydropyridin-1(2H)-yl)butan-2-yl)isoindoline-1,3-dione and 2-((R)-1-oxo-1-((S)-6-(pyridin-3-yl)-5,6-dihydropyridin-1(2H)-yl)butan-2-yl)isoindoline-1,3-dione [Compound 6]	750000

Same assay, conditions: Homo sapiens, 4 h, 25 ng/ml of TNF-α for four hours, quadruplicate, read-out: IC50, concentration at which NF-kB activation was reduced by 50%

Compound	IC50 [nM]
CCOc1cccc(C(=O)N[C@@H](Cc2ccccc2)C(=O)N2CC=CCC2c2cccnc2)c1 (stereo partly drawn) [Compound 33, 3-ethoxy-N-((2S)-1-oxo-3-phenyl-1-(6-(pyridin-3-yl)-5,6-dihydropyridin-1(2H)-yl)propan-2-yl)benzamide]	1800
COc1cc(F)cc(C(=O)NC(Cc2ccccc2)C(=O)N2CC=CCC2c2cccnc2)c1 (stereo not shown) [Compound 24, 3-fluoro-5-methoxy-N-(1-oxo-3-phenyl-1-(6-(pyridin-3-yl)-5,6-dihydropyridin-1(2H)-yl)propan-2-yl)benzamide]	4000
CCCC(=O)Nc1cccc(C(=O)N[C@@H](Cc2ccccc2)C(=O)N2CCCCC2c2cccnc2)c1 (stereo partly drawn) [Compound 63, 3-butyramido-N-((2S)-1-oxo-3-phenyl-1-(2-(pyridin-3-yl)piperidin-1-yl)propan-2-yl)benzamide]	58.4
NCCC(=O)Nc1cccc(C(=O)N[C@@H](Cc2ccccc2)C(=O)N2CC=CCC2c2cccnc2)c1 (stereo partly drawn) [Compound 54, 3-(3-aminopropanamido)-N-((2S)-1-oxo-3-phenyl-1-(6-(pyridin-3-yl)-5,6-dihydropyridin-1(2H)-yl)propan-2-yl)benzamide hydrochloride]	186
COc1cccc(C(=O)N[C@@H](Cc2ccccc2)C(=O)N2CC=CCC2c2cccnc2)c1 (stereo partly drawn) [Compound 35, 3-methoxy-N-((2S)-1-oxo-3-phenyl-1-(6-(pyridin-3-yl)-5,6-dihydropyridin-1(2H)-yl)propan-2-yl)benzamide]	1600
Nc1cccc(C(=O)NC(Cc2ccccc2)C(=O)N2CC=CCC2c2cccnc2)c1 (stereo not shown) [Compound 38, 3-amino-N-(1-oxo-3-phenyl-1-(6-(pyridin-3-yl)-5,6-dihydropyridin-1(2H)-yl)propan-2-yl)benzamide]	250
CC(C)[C@@H](C(=O)N1CC=CC[C@@H]1c1cccnc1)N1C(=O)c2ccccc2C1=O (single isomer, unassigned) [Compound 4]	550000
COc1cccc(C(=O)N[C@@H](C)C(=O)N2CC=CCC2c2cccnc2)c1 (stereo partly drawn) [Compound 10, 3-methoxy-N-((2S)-1-oxo-1-(6-(pyridin-3-yl)-5,6-dihydropyridin-1(2H)-yl)propan-2-yl)benzamide]	125000
CCOc1cc(C(=O)N[C@H](Cc2ccccc2)C(=O)N2CC=CCC2c2cccnc2)ccc1OC (stereo partly drawn) [Compound 26, 3-ethoxy-4-methoxy-N-((2R)-1-oxo-3-phenyl-1-(6-(pyridin-3-yl)-5,6-dihydropyridin-1(2H)-yl)propan-2-yl)benzamide]	2800
O=C(NC(Cc1ccccc1)C(=O)N1CC=CCC1c1cccnc1)c1cccc(F)c1 (stereo not shown) [Compound 19, 3-fluoro-N-(1-oxo-3-phenyl-1-(6-(pyridin-3-yl)-5,6-dihydropyridin-1(2H)-yl)propan-2-yl)benzamide]	5400
O=C1c2ccccc2C(=O)N1CC(=O)N1CC=CCC1c1cccnc1 (stereo not shown) [Compound 8, 2-(2-oxo-2-(6-(pyridin-3-yl)-5,6-dihydropyridin-1(2H)-yl)ethyl)isoindoline-1,3-dione]	550000
CCOc1cccc(C(=O)NC(Cc2ccccc2)C(=O)N2CC=CCC2c2cccnc2)c1 (stereo not shown) [Compound 20, 3-ethoxy-N-(1-oxo-3-phenyl-1-(6-(pyridin-3-yl)-5,6-dihydropyridin-1(2H)-yl)propan-2-yl)benzamide]	1500
CC(C)CC(=O)Nc1cccc(C(=O)N[C@@H](Cc2ccccc2)C(=O)N2CC=CCC2c2cccnc2)c1 (stereo partly drawn) [Compound 42, 3-(3-methylbutanamido)-N-((2S)-1-oxo-3-phenyl-1-(6-(pyridin-3-yl)-5,6-dihydropyridin-1(2H)-yl)propan-2-yl)benzamide]	86.9
O=C(N[C@@H](Cc1ccccc1)C(=O)N1CC=CCC1c1cccnc1)c1ccc[nH]1 (stereo partly drawn) [Compound 56, N-((2S)-1-oxo-3-phenyl-1-(6-(pyridin-3-yl)-5,6-dihydropyridin-1(2H)-yl)propan-2-yl)-1H-pyrrole-2-carboxamide]	968
C[C@H](C(=O)N1CC=CCC1c1cccnc1)N1C(=O)c2ccccc2C1=O (stereo partly drawn) [Compound 17, 2-((2R)-1-oxo-1-(6-(pyridin-3-yl)-5,6-dihydropyridin-1(2H)-yl)propan-2-yl)isoindoline-1,3-dione]	140000
O=C(N[C@@H](Cc1ccccc1)C(=O)N1CC=CCC1c1cccnc1)c1ccc2ccccc2n1 (stereo partly drawn) [Compound 49, N-((2S)-1-oxo-3-phenyl-1-(6-(pyridin-3-yl)-5,6-dihydropyridin-1(2H)-yl)propan-2-yl)quinoline-2-carboxamide]	174
CCCC(=O)Nc1cccc(C(=O)N[C@@H](Cc2cccc3ccccc23)C(=O)N2CC=CCC2c2cccnc2)c1 (stereo partly shown) [Compound 64, 3-butyramido-N-((2 S)-3-(naphthalen-1-yl)-1-oxo-1-(6-(pyridin-3-yl)-5,6-dihydropyridin-1 (2H)-yl)propan-2-yl)benzamide]	285
O=C(N[C@@H](Cc1ccccc1)C(=O)N1CC=CCC1c1cccnc1)c1cccc(NC(=O)C2CCCC2)c1 (stereo partly drawn) [Compound 46, 3-(cyclopentanecarboxamido)-N-((2S)-1-oxo-3-phenyl-1-(6-(pyridin-3-yl)-5,6-dihydropyridin-1(2H)-yl)propan-2-yl)benzamide]	58.5
O=C(NC(Cc1ccccc1)C(=O)N1CC=CCC1c1cccnc1)c1cccc(Cl)c1 (stereo not shown) [Compound 18, 3-chloro-N-(1-oxo-3-phenyl-1-(6-(pyridin-3-yl)-5,6-dihydropyridin-1(2H)-yl)propan-2-yl)benzamide]	7000
CC(C)[C@@H](C(=O)N1CC=CC[C@H]1c1cccnc1)N1C(=O)c2ccccc2C1=O (single isomer, unassigned) [Compound 3]	750000
CCCC(=O)Nc1cccc(C(=O)N[C@@H](CC2CCCCC2)C(=O)N2CC=CCC2c2cccnc2)c1 (stereo partly drawn) [Compound 66, 3-butyramido-N-((2S)-3-cyclohexyl-1-oxo-1-(6-(pyridin-3-yl)-5,6-dihydropyridin-1(2H)-yl)propan-2-yl)benzamide]	346
CCCCNc1cccc(C(=O)N[C@@H](Cc2ccccc2)C(=O)N2CC=CCC2c2cccnc2)c1 (stereo partly drawn) [Compound 60, 3-(butylamino)-N-((2S)-1-oxo-3-phenyl-1-(6-(pyridin-3-yl)-5,6-dihydropyridin-1(2H)-yl)propan-2-yl)benzamide]	216
CCOc1ccc(C(=O)N[C@@H](C)C(=O)N2CC=CCC2c2cccnc2)cc1OCC (stereo partly drawn) [Compound 11, 3,4-diethoxy-N-((2S)-1-oxo-1-(6-(pyridin-3-yl)-5,6-dihydropyridin-1(2H)-yl)propan-2-yl)benzamide]	250000

Source: US20220081415A1, “Amino Acid Derivatives for the Treatment of Inflammatory Diseases” (The Roskamp Institute, priority 2019, published 2022)
